The values that follow come from patent publication US20160046618A1, “Cyclopropyl Fused Thiazin-2-Amine Compounds as Beta-Secretase Inhibitors and Methods of Use” (AMGEN INC., priority 2014, published 2016).

The subject of data set [1] is pigment epithelium of the rat's eye. The following applies: higher compound dose given for three months; cited from earlier work.
For data set [2] the following is noted: cited from earlier work.
Another data set relates to CSF Aβ40. The following applies: healthy individuals, 36 h post-dose, cited from earlier work.
The conditions of data set [3]: phase 1, healthy individuals; cited from earlier work.
In another data set the test system is Aβ in lumbar CSF. Particulars: oral dosing of 30 or 90 mg; cited from earlier work.
The conditions of data set [4]: healthy volunteers; cited from earlier work.
A further data set addresses human recombinant BACE2 (Homo sapiens (Human), UniProt Q9Y5Z0). The experiment in a line: In vitro enzymatic BACE2 FRET assay. The data set is classed as biochemical. The following applies: read-out: IC50 IP (μM) BACE2 enzyme. The procedure, abridged: (§1)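 FRET cleavage assay using Ni-NTA-purified recombinant protease and 50 nM quenched peptide substrate, 1 h. Stopped by neutralising with Tris; fluorescence at 488/590 nm.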

For a further data set, the system named is Aβ 40 in rat brain. The data set is described as follows: In vivo inhibition of beta-secretase: Aβ40 reduction in rat brain. The following applies: 10 mpk, after 4 h. The procedure, abridged: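 Rats were dosed by oral gavage at up to 100 mg/kg in 2% HPMC, 1% Tween80, pH 2.2, with vehicle-only controls. Supernatant Aβ40 was measured by ECL sandwich ELISA with biotinylated-4G8 capture and C-terminal Fab40 detection.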

The target in a further data set is human recombinant BACE1 (Homo sapiens (Human), UniProt P56817). The data set is described as follows: In vitro enzymatic BACE1 FRET assay. Format: biochemical. The following applies: read-out: IC50 IP (μM) BACE1 enzyme. The procedure, abridged: as §1
In another data set the target is Recombinant Cat D (Homo sapiens (Human), UniProt P07339). The experiment in a line: In vitro enzymatic Cathepsin D (Cat D) FRET assay. The data set is classed as biochemical. The following applies: read-out: IC50 IP (μM) CatD. Put shortly:
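Recombinant Cat D expressed in CHO cells, assayed in 0.05 M citrate pH 3.5 with 5 mM CHAPS and 10% DMSO final. Reaction started with 20 nM FRET peptide substrate, incubated one hour, then stopped by Tris buffer to neutral pH; fluorescence read at ex 500/em 580 nm.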

The test system of the next data set is Aβ 40 in rat CSF. The experiment in a line: In vivo inhibition of beta-secretase: Aβ40 reduction in rat CSF. Particulars: 10 mpk, after 4 h. Put shortly: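 Male Sprague Dawley rats (200 g) dosed orally in 2% HPMC, 1% Tween80, pH 2.2, at 3, 10 or 30 mg/kg; CSF and brain taken 4 h later. Brain homogenate centrifuged at 355,000 g; Aβ40 measured by ECL sandwich ELISA (4G8 capture, Abeta40 C-terminal Fab detection), as % reduction versus vehicle controls.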

Data set [5] deals with Aβ40 in conditioned medium of cells stably expressing Amyloid Precursor Protein (APP). The experiment in a line: In vitro BACE-1 cell-based assay (Aβ40 sandwich ELISA). Particulars: read-out: IC50 IP (μM) BACE1 cell. The procedure, abridged:
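APP-stable cells, pre-cultured 24 h at 37° C in DMEM/10% FBS, were treated 24 h with compound in a 10-point series starting at 100 μM or 10 μM (0.1% DMSO final). Secreted Aβ40 in conditioned medium was measured by pAb40/biotin-6E10 sandwich ELISA with Europium time-resolved fluorescence; IC50 from percent inhibition versus concentration.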

Structures are written as SMILES. Like-named read-outs stand apart in the source and are kept apart here.

human recombinant BACE1, sequence (P56817 46-501): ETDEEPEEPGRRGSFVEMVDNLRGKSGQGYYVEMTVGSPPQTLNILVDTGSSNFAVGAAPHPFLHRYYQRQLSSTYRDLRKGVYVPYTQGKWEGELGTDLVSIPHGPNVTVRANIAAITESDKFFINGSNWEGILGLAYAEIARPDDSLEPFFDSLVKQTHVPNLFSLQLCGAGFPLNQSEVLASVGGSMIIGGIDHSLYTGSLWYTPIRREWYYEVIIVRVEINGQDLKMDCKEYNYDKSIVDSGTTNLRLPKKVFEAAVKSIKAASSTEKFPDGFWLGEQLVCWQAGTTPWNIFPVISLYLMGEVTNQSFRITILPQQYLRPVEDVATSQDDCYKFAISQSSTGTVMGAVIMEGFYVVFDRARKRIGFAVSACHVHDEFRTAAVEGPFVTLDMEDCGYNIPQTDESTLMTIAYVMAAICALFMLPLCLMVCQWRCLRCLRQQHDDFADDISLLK
human recombinant BACE2, sequence (Q9Y5Z0 63-518): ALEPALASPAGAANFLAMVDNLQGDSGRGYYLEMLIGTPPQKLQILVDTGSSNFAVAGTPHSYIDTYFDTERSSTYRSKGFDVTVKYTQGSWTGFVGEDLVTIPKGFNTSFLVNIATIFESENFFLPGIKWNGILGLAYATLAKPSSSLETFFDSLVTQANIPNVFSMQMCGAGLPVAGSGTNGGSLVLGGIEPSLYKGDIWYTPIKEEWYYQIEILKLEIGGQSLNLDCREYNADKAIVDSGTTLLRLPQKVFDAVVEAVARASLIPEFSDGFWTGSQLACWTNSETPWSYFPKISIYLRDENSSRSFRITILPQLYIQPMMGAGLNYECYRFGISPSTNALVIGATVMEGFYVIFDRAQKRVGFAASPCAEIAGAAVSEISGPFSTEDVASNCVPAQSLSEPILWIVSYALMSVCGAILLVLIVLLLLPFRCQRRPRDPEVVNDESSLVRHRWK
Recombinant Cat D, sequence (P07339 65-412): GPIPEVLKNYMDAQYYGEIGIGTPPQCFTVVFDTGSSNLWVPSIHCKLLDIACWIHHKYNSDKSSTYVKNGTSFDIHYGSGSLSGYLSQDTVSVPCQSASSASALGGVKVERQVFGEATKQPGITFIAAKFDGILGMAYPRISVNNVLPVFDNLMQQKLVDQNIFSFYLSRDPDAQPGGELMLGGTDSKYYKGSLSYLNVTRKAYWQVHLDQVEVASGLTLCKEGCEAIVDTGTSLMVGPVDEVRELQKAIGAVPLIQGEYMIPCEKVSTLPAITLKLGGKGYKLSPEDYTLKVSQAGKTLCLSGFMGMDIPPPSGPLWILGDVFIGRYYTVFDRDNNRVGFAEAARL

As to `C[C@@]1(c2cc(-c3cncnc3)c(F)cc2F)CCSC(N)=N1` [LY 2811376], the “retinal toxicity finding in rat toxicology studies” value in data set [1] is on record as “damaged the pigment epithelium of the rat's eye”. For the same molecule, the “eye assessments of people from the Ph I dosing trial” value in [2] was “did not show any abnormalities”.
On to `CN1C(=N)N[C@](C)(c2cc(NC(=O)c3ccc(F)cn3)ccc2F)CS1(=O)=O` [MK-8931], for which the results for the “reduction of CSF Aβ40 concentrations” value in the data set with CSF Aβ40 (single dose of 100 mg) and in the data set with CSF Aβ40 (single dose of 550 mg) were 75% and 92%, respectively. For the same molecule, the tolerability result in [3] is “generally well tolerated”.
With `C[C@@]1(c2cc(-c3cncnc3)c(F)cc2F)CCSC(N)=N1` [LY2811376, (S)-4-(2,4-difluoro-5-pyrimidin-5-yl-phenyl)-4-methyl-5,6-dihydro-4H-[1,3]thiazin-2-ylamine], the “Aβ reductions in lumbar CSF” value in the data set on Aβ in lumbar CSF was “Prominent and long-lasting Aβ reductions”. In addition, in data set [4], the safety and tolerability entry was “safe and well tolerated”.
What is called IC50 is the midpoint of a concentration-inhibition curve. Consider `C[C@]1(c2cc(Nc3ncnc4cc(OCc5ncco5)cnc34)cc(F)c2F)N=C(N)S[C@@]2(C(F)F)C[C@@H]12` [Example 812, N-(3-((1S,5S,6S)-3-amino-1-(difluoromethyl)-5-methyl-2-thia-4-azabicyclo[4.1.0]hept-3-en-5-yl)-4,5-difluorophenyl)-7-(1,3-oxazol-2-ylmethoxy)pyrido[3,2-d]pyrimidin-4-amine], for which the IC50 turned out to be 0.0642 µM at human recombinant BACE2, 0.000827 µM at human recombinant BACE1, 118 µM at Recombinant Cat D and 0.00167 µM in data set [5]. Further, the “% Aβ 40 reduction in rat brain at 10 mpk” value in the data set with Aβ 40 in rat brain is listed as 38%. For the same molecule, in the data set on Aβ 40 in rat CSF, the “% Aβ 40 reduction in rat CSF at 10 mpk” value came out at 52%.
Regarding `C#CCOc1cnc(C(=O)Nc2cc(F)c(F)c([C@@]3(CF)N=C(N)S[C@H]4C[C@H]43)c2)cn1` [Example 20, N-(3-((1S,5S,6S)-3-amino-5-(fluoromethyl)-2-thia-4-azabicyclo[4.1.0]hept-3-en-5-yl)-4,5-difluorophenyl)-5-(2-propyn-1-yloxy)-2-pyrazinecarboxamide], the IC50 on human recombinant BACE2 (BACE2 FRET enzyme assay) stood at 0.0394 µM; at human recombinant BACE1 (BACE1 FRET enzyme assay), 0.0006 µM; on Recombinant Cat D (Cathepsin D FRET enzyme assay), 47.1 µM; in [5] (BACE1 cell-based assay) it was 0.00064 µM. Besides, the “% Aβ 40 reduction in rat brain at 10 mpk” value in the data set on Aβ 40 in rat brain stood at 76%. For the same molecule, in the data set on Aβ 40 in rat CSF, the “% Aβ 40 reduction in rat CSF at 10 mpk” value is listed as 80%.
`C#CCOc1cnc2c(Nc3cc(F)c(F)c([C@@]4(CF)N=C(N)S[C@H]5C[C@H]54)c3)nccc2n1` [Example 841, N-(3-((1S,5S,6S)-3-amino-5-(fluoromethyl)-2-thia-4-azabicyclo[4.1.0]hept-3-en-5-yl)-4,5-difluorophenyl)-2-(2-propyn-1-yloxy)pyrido[3,4-b]pyrazin-5-amine]: the 50% inhibitory concentration (IC50) on human recombinant BACE2 is 0.0449 µM; at human recombinant BACE1 it was 0.00114 µM; at Recombinant Cat D it was 598 µM; in data set [5], 0.0216 µM. In the data set on Aβ 40 in rat brain, the “% Aβ 40 reduction in rat brain at 10 mpk” value came to 44%. Moreover, the “% Aβ 40 reduction in rat CSF at 10 mpk” value in the data set on Aβ 40 in rat CSF worked out at 58%.
For the molecule `COC[C@]12C[C@H]1[C@@](C)(c1cc(NC(=O)c3cnc(OCC(F)(F)F)cn3)ccc1F)N=C(N)S2` [Example 831, N-(3-((1S,5S,6S)-3-amino-1-(methoxymethyl)-5-methyl-2-thia-4-azabicyclo[4.1.0]hept-3-en-5-yl)-4-fluorophenyl)-5-(2,2,2-trifluoroethoxy)-2-pyrazinecarboxamide], the IC50 at human recombinant BACE2 is 0.118 µM; on human recombinant BACE1 it was 0.00299 µM; at Recombinant Cat D, over 400 µM; in data set [5] it was 0.00359 µM. For the same molecule, the “% Aβ 40 reduction in rat brain at 10 mpk” value in the data set on Aβ 40 in rat brain worked out at 16%. In the data set with Aβ 40 in rat CSF, the “% Aβ 40 reduction in rat CSF at 10 mpk” value came out at 49%.
With `NC1=N[C@](CF)(c2cc(Nc3nccc4nc(OCc5ncco5)cnc34)ccc2F)C2C[C@@H]2S1` (stereo in doubt) [Example 56, N-(3-((1S,5S,6S)-3-amino-5-(fluoromethyl)-2-thia-4-azabicyclo[4.1.0]hept-3-en-5-yl)-4-fluorophenyl)-2-(1,3-oxazol-2-ylmethoxy)pyrido[3,4-b]pyrazin-5-amine], the concentration for half-maximal inhibition (IC50) was 0.27 µM on human recombinant BACE2 (BACE2 FRET enzyme assay), 0.00538 µM at human recombinant BACE1 (BACE1 FRET enzyme assay), over 400 µM on Recombinant Cat D (Cathepsin D FRET enzyme assay) and 0.0135 µM in [5] (BACE1 cell-based assay). In addition, the “% Aβ 40 reduction in rat brain at 10 mpk” value in the data set with Aβ 40 in rat brain was 32%. For the same molecule, in the data set on Aβ 40 in rat CSF, the “% Aβ 40 reduction in rat CSF at 10 mpk” value came out at 50%.
As for `C#CCOc1cnc(C(=O)Nc2cc(F)c(F)c([C@@]3(CF)N=C(N)S[C@H]4C[C@H]43)c2)c(C)n1` [Example 84, N-(3-((1S,5S,6S)-3-amino-5-(fluoromethyl)-2-thia-4-azabicyclo[4.1.0]hept-3-en-5-yl)-4,5-difluorophenyl)-3-methyl-5-(2-propyn-1-yloxy)-2-pyrazinecarboxamide], the concentration for half-maximal inhibition (IC50) was determined as 0.0228 µM at human recombinant BACE2 (BACE2 FRET enzyme assay), 0.00125 µM at human recombinant BACE1 (BACE1 FRET enzyme assay), 974 µM at Recombinant Cat D (Cathepsin D FRET enzyme assay) and 0.0216 µM in data set [5] (BACE1 cell-based assay). Also, the “% Aβ 40 reduction in rat brain at 10 mpk” value in the data set with Aβ 40 in rat brain stood at 8%. The “% Aβ 40 reduction in rat CSF at 10 mpk” value with Aβ 40 in rat CSF is 40%.
For the molecule `C#CCOc1cnc2c(Nc3ccc(F)c([C@@]4(CF)N=C(N)S[C@H]5C[C@H]54)c3)ncnc2c1` [Example 941, N-(3-((1S,5S,6S)-3-amino-5-(fluoromethyl)-2-thia-4-azabicyclo[4.1.0]hept-3-en-5-yl)-4-fluorophenyl)-7 (2-propyn-1-yloxy)pyrido[3,2-d]pyrimidin-4-amine], the concentration for half-maximal inhibition (IC50) at human recombinant BACE2 stood at 0.2 µM; on human recombinant BACE1, 0.00962 µM; on Recombinant Cat D, 780 µM; in data set [5], 0.0129 µM. Besides, the “% Aβ 40 reduction in rat brain at 10 mpk” value with Aβ 40 in rat brain was 2%. Besides, in the data set with Aβ 40 in rat CSF, the “% Aβ 40 reduction in rat CSF at 10 mpk” value stood at 41%.
Turning to `NC1=N[C@](CF)(c2cc(Nc3nccc4nc(OCc5cocn5)cnc34)cc(F)c2F)[C@@H]2C[C@@H]2S1` [Example 843, N-(3-((1S,5S,6S)-3-amino-5-(fluoromethyl)-2-thia-4-azabicyclo[4.1.0]hept-3-en-5-yl)-4,5-difluorophenyl)-2-(1,3-oxazol-4-ylmethoxy)pyrido[3,4-b]pyrazin-5-amine], the half-maximal inhibitory concentration (IC50) on human recombinant BACE2 came out at 0.115 µM; at human recombinant BACE1, 0.00378 µM; on Recombinant Cat D it was 432 µM; in data set [5], 0.0493 µM. Also, the “% Aβ 40 reduction in rat brain at 10 mpk” value in the data set on Aβ 40 in rat brain is listed as 16%. Besides, in the data set on Aβ 40 in rat CSF, the “% Aβ 40 reduction in rat CSF at 10 mpk” value came to 51%.
Regarding `Cc1noc(COc2cnc(C(=O)Nc3ccc(F)c([C@@]4(C)N=C(N)S[C@@]5(C(F)F)C[C@@H]45)c3)cn2)n1` [Example 1039, N-(3-((1S,5S,6S)-3-amino-1-(difluoromethyl)-5-methyl-2-thia-4-azabicyclo[4.1.0]hept-3-en-5-yl)-4-fluorophenyl)-5-((3-methyl-1,2,4-oxadiazol-5-yl)metnoxy)-2-pyrazinecarboxamide], the half-inhibitory concentration (IC50) was 0.171 µM at human recombinant BACE2, 0.000941 µM on human recombinant BACE1, 725 µM at Recombinant Cat D and 0.00251 µM in [5]. In addition, the “% Aβ 40 reduction in rat brain at 10 mpk” value in the data set on Aβ 40 in rat brain is 16%. Also, the “% Aβ 40 reduction in rat CSF at 10 mpk” value in the data set with Aβ 40 in rat CSF was found to be 13%.
With `Cc1cc(OCC(F)(F)F)cnc1C(=O)Nc1cc(F)c(F)c([C@@]2(C)N=C(N)S[C@@]3(C(F)F)C[C@@H]23)c1` [Example 679, N-(3-((1S,5S,6S)-3-amino-1-(difluoromethyl)-5-methyl-2-thia-4-azabicyclo[4.1.0]hept-3-en-5-yl)-4,5-difluorophenyl)-3-methyl-5-(2,2,2-trifluoroethoxy)-2-pyridinecarboxamide], the IC50 at human recombinant BACE2 came to 0.746 µM; on human recombinant BACE1 it was 0.00435 µM; at Recombinant Cat D, 375 µM; in data set [5], 0.0495 µM. Also, the “% Aβ 40 reduction in rat brain at 10 mpk” value in the data set with Aβ 40 in rat brain was determined as 6%. The “% Aβ 40 reduction in rat CSF at 10 mpk” value with Aβ 40 in rat CSF is 20%.
